# From patent US5231091A, “Bis-arylphosphate ester antagonists of platelet activating factor” (priority 1992, dated 1993)
# pIC50: −log10 of the molar value. Structures can show the parent of a compound that is named as a salt.
# Tests used:
# PAF receptor [1] = target: T1, PAF receptor (Oryctolagus cuniculus, UniProt G1TEI7); test: Inhibition of PAF-induced aggregation in washed rabbit platelets; format: cell-based; conditions: PAF challenge 5E-9M, number of experiments in parentheses
# T1 construct: endogenous in cells; host or cells: rabbit platelets (male New Zealand White)
# Protocol: (§1) Test compounds were evaluated as PAF receptor antagonists in vitro by measuring inhibition of PAF (platelet activating factor) induced platelet aggregation. Platelet aggregation was measured by a modification of the method described in A. Wissner, et. al., J. Med. Chem., 27, 1174, 1984.
# (§2) L-PAF was obtained from Calbiochem. A stock solution of 1-2 E-3M was prepared in 10% ethanol in water or 100% methanol and serial working dilutions were made using phosphate buffered saline (PBS). 1-2 E-3M stock solutions of test compounds were prepared in 100% methanol and serially diluted in PBS. All solutions were made up in plastic tubes, stored on ice and protected from heat and light. Solutions were prepared fresh or frozen at -20° C. and used within 48 hours.
# More specifically, […] for 1-2 minutes at 37° C. in the aggregometer to achieve a stable baseline, then 50 μl of PBS or test compound, was added and incubated for 5 minutes before addition of the challenge concentration of PAF (final concentration of 5E-8M or 1E-7M, as determined from the dose response curve for PAF for that experiment). Aggregation was monitored for 5 minutes. Samples containing test compound or diluent were run simultaneously for comparison. Test compounds were initially evaluated at a screening concentration of 1E-5M. […]
# LPS induced gut leakage = test: Endotoxin induced hemorragic lesions / LPS induced gut leakage in rats; format: in vivo, rat (male Wistar); conditions: for % of control leakage (K), IV LPS induced gut leakage: ± SEM; for protection against LPS induced gut damage: IV LPS
# Text: One of the main sites of LPS induced pathology in the rat and guinea pig is the gut, particularly the duodenum, small intestine and cecum. After LPS exposure hemorragic lesions develop within a few minutes and can involve most of the lumenal surface. The extent of these pathologies can be quantitated histologically or by measuring the amount of plasma proteins that have leaked into the lumen. The second method is much faster and can detect damage in the junctions between capillary or intestinal epithelial cells before gross lesions have developed. Hot tags have shown plasma leakage after LPS challenge using radiolabeled albumin as the probe. In our assay we have chosen to use a non-radioactive tagging method in which plasma albumin is labeled with Evan's blue dye and the lumenal leakage is determined spectrophotometricly.
# Evan's blue dye: Sigma e-2129, made as a 1% w/v solution in saline which was filtered and kept refrigerated.
# For each experiment fresh 3-[[3-[[hydroxy[2-methoxy-3-(tetradecyloxy)phenoxy]phosphinyl]oxy]phenyl]- methyl]-5-methyl-thiazolium, hydroxide, inner salt was sonicated into saline.
# LPS solutions were made fresh for each experiment.
# Male Wistar rats, obtained from Charles River, weighing 160-225 gm were maintained in accordance with ALAC standards for at least one week before use.
# Food was withheld from the animals for 18 hours before the experiment to clear the intestine. The rats were dosed with 3-[[3-[[hydroxy[2-methoxy-3-(tetradecyloxy)phenoxy]phosphinyl]oxy]phenyl]methyl]-5-methyl-thiazolium, hydroxide, inner salt or saline ip, 4 ml/kg, 1/2 hour before challenge with 25 or 50 mg/kg LPS in the 1% dye at 10 ml/kg. One hour after the LPS insult the animals were sacrificed and the duodenum and initial 6-7 cm of the jejunum isolated. This segment was lavaged with 2 ml of normal saline with the fluid flowing into polyethylene tubes. The lavageate frequently contained mucous and in order to free the stained albumin the samples were sonicated vigorously and then centrifuged to clarify the fluid. The amount of dye was determined spectrophotometrically, using a Vmax microtiter plate reader using the end point mode at […].
# [2] = tested on: endotoxin induced mortality; test: Endotoxin induced shock and mortality in mice; format: in vivo, mouse (male Balb/c)
# Text: The test compounds (PAF antagonists) were also efficacious when administered iv prior to a lethal iv injection of endotoxin (Table IX).
# PAF induced lethality = PAF induced lethality in mice; format: in vivo; conditions: I.P. 10 mg/kg; corrected for control lethality
# Protocol: PAF given I.V. to mice causes an immediate hypotensive shock leading to death in 1 hour or less. Compounds were given intraperitoneally or P.O. at various times before the PAF challenge. Animals alive after 2 hours were counted and the activity of test compounds expressed as % survival corrected for any control (saline treated) animals which survived the PAF challenge.
# PAF receptor [3] = target: T2, PAF receptor (Homo sapiens, UniProt P25105); test: Inhibition of PAF-induced aggregation in human platelet rich plasma; format: cell-based; conditions: PAF challenge 1E-6M, number of experiments in parentheses
# T2 construct: Blood from healthy volunteers was collected; endogenous in cells; host or cells: human platelets (healthy volunteers)
# Protocol: as §1, §2
# Incubation mixtures consisted of 400 μl PRP, 50 μl of PBS diluent or test compound and 50 μl of PAF agonist. More specifically, 400 μl of PRP was stabilized in a cuvette for 1-2 minutes at 37° C. in the aggregometer to achieve a stable baseline, then 50 μl of PBS or test compound, was added and incubated for 5 minutes before addition of the challenge concentration of PAF (final concentration of 5E-8M or 1E-7M, as determined from the dose response curve for PAF for that experiment). Aggregation was monitored for 5 minutes. Samples containing test compound or diluent were run simultaneously for comparison. Test compounds were initially evaluated at a screening concentration of 1E-5M.
# The recording equipment consisted of a dual channel Chronolog aggregometer connected to a dual channel 10 MV full scale deflection Omniscribe chart recorder (Houston Instruments). […] The bead suspension was used to set the 0% light transmission mark and clear water was used to set the 100% light transmission mark. These limits defined a full scale deflection. The aggregation traces were analyzed by a digitizing method (C. Kohler and B. Zoltan, J. Pharm. Methods, 12, 113, 1984) with x, y coordinate data stored in a computer file. A suitable program computed parameters of interest such as the magnitude of aggregation.
# In some experiments, human PRP was used instead of rabbit PRP. Blood from healthy volunteers was collected in Vacutainers® containing the Na citrate diluent and processed in a manner similar to rabbit blood to obtain the PRP. For these experiments, the challenge concentration of PAF was 1E-6M.
# T1 sequence (G1TEI7 1-342): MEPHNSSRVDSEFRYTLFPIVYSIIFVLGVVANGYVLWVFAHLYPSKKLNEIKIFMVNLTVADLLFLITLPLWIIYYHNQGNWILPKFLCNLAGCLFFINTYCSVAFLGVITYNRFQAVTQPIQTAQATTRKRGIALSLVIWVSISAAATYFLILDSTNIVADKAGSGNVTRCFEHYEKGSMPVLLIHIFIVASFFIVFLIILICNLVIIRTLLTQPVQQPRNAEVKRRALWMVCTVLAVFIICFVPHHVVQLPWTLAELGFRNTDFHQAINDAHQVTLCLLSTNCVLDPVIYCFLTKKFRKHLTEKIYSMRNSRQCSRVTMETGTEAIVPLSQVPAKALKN
# T2 sequence (P25105 whole entry): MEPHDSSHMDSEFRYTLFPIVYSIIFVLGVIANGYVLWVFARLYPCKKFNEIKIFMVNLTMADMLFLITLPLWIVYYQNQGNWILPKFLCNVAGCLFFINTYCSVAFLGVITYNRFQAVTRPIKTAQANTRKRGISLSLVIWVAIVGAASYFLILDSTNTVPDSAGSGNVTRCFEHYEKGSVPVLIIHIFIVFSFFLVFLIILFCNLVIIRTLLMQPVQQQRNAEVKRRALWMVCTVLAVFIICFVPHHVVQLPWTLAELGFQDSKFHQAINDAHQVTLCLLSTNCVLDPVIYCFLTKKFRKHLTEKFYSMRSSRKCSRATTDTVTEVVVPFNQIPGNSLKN
smiles,measurement,setting,value
"CCCCCCCCCCCCCCOc1cccc(OP(=O)([O-])Oc2cccc(C[n+]3csc(C)c3)c2)c1OC [3-[[3-[[Hydroxy[2-methoxy-3-(tetradecyloxy)phenoxy]-phosphinyl]oxy]phenyl]methyl]-5-methyl-thiazolium, hydroxide, inner salt]",pIC50,PAF receptor [1],8.26
same,"% of control leakage (K), IV LPS induced gut leakage","LPS induced gut leakage; 0.125 mg/kg IP, Experiment 1",24 ± 15%
same,"% of control leakage (K), IV LPS induced gut leakage","LPS induced gut leakage; 0.125 mg/kg IP, Experiment 2",107 ± 27%
same,"% of control leakage (K), IV LPS induced gut leakage","LPS induced gut leakage; 0.25 mg/kg IP, Experiment 1",36 ± 23%
same,"% of control leakage (K), IV LPS induced gut leakage","LPS induced gut leakage; 0.25 mg/kg IP, Experiment 2",65 ± 15%
same,"% of control leakage (K), IV LPS induced gut leakage","LPS induced gut leakage; 0.5 mg/kg IP, Experiment 1",15 ± 10%
same,"% of control leakage (K), IV LPS induced gut leakage","LPS induced gut leakage; 0.5 mg/kg IP, Experiment 2",16 ± 9%
same,"% of control leakage (K), IV LPS induced gut leakage","LPS induced gut leakage; 1 mg/kg IP, Experiment 1",22 ± 15%
same,"% of control leakage (K), IV LPS induced gut leakage","LPS induced gut leakage; 2 mg/kg IP, Experiment 1",10 ± 10%
same,"% of control leakage (K), IV LPS induced gut leakage","LPS induced gut leakage; 2 mg/kg IP, Experiment 2",18 ± 24%
same,"% of control leakage (K), IV LPS induced gut leakage","LPS induced gut leakage; 2 mg/kg IP, Experiment 3",27 ± 11%
same,"% of control leakage (K), IV LPS induced gut leakage","LPS induced gut leakage; 20 mg/kg IP, Experiment 1",20 ± 2%
same,"% of control leakage (K), IV LPS induced gut leakage","LPS induced gut leakage; 20 mg/kg IP, Experiment 2",19 ± 31%
same,activity seen at doses as low as,LPS induced gut leakage; IP,1/2
same,doses as low as (able to reduce or eliminate damage produced by IV LPS),LPS induced gut leakage; IP one hour before challenge,1/2
same,protection against LPS induced gut damage,LPS induced gut leakage; IP,able to reduce or eliminate the damage produced by IV LPS
same,protection against LPS induced gut damage,"LPS induced gut leakage; IP, listed as 3-[[3-[[hydroxy[2-methoxy-3-(tetradecyloxy)phenoxy]-phosphinyl]oxy]phenyl]-methy",very potent protection against the end point of gut pathophysiology
same,direct observation of the intestinal tract of LPS challenged protected animals,LPS induced gut leakage; LPS challenge,nearly normal appearing guts
same,minimal effective dose,"LPS induced gut leakage; Rattus norvegicus, ip, read-out: doses as low as (prevents the gut manifestations of endotoxin shock), rats",0.25 mg/kg
same,diarrhea in LPS challenged treated animals,LPS induced gut leakage; virtually all control animals had severe diarrhea,little or none
same,"24 hour survival, treated",[2]; 40 mg/kg IP 2 hours prior to IP endotoxin,13/50
same,"Survival after 24 hrs., treated","[2]; Table IX, 20 mg/kg iv prior to iv endotoxin, footnote prints IP, control 3/40",14/40
same,"PAF induced lethality, % protection",PAF induced lethality,17%
same,pIC50,PAF receptor [3],4.51
